Reference: patent publication US12303498B2, “ALK5 inhibitors as skeletal muscle hypertrophy inducers” (CYTOO, priority 2018, dated 2025)

Legend:
[1] = tested on: Myotubes from the healthy donor 3 atrophied by TNF-α, IL-1β, Myostatin, TGF-β or dexamethasone; assay: Atrophy rescue assay (MyoScreen); type: cell-based, human; design: key: +++: total rescue; ++: partial rescue; +: low rescue
Protocol: Hypertrophy and Atrophy Rescue assays were performed using an in vitro fully automated human myotube model called MyoScreen™ (Cytoo, France). This model relies on a tight control of the microenvironment that guides the differentiation of human primary myoblasts. Myotubes formed on MyoScreen™ micropatterns present a high level of maturation together with a highly standardized morphology.
Human primary myoblasts from donors were seeded in MyoScreen™ micropatterned 96-well plates (Cytoo, France), let them adhere for 24 h in growth medium, then run the differentiation in a low horse serum medium for at least 5 days.
At Day 0, MyoScreen™ plates (Cytoo, France) containing micropatterns were pre-filled with 200 μl/well of growth medium and stored in the incubator at 37° C. Human primary myoblasts were detached from the flasks, count, and seeded into the plates with 15 000 cells per well in 100 μl of growth medium.
At Day 1, the growth medium was changed for a differentiation medium, 300 μl/well (DMEM with 0.1% horse serum) in which myoblasts started differentiating and forming myotubes.
At Day 2, the differentiation medium was changed. Then candidate compounds were diluted with differentiation medium and transferred into the plate. The final concentration of DMSO should be not higher than 0.1%. At least 6 wells were treated with the vehicle as a basal control, and 6 wells were treated with IGF-1 at 100 ng/ml as positive hypertrophy control.
For Atrophy Rescue assay, one hour after candidate compound addition, atrophy inducers were added at the following final concentration: 150 ng/mL of myostatin, 25 ng/mL of IL-1β, 2 ng/mL of TNF-α, 0.5 ng/mL of TGF-β and 100 μM of dexamethasone.
At Day 6, cells were fixed with formalin 5% for 30 min at room temperature, then permeabilized with Triton X-100 at 0.1% in PBS for 15 min, and blocked with PBS+BSA 1% for 20 minutes. Myotubes were incubated with first antibody against Troponin T in blocking buffer for 1 h30, washed three times with PBS, incubated with secondary antibody and Hoescht ( 1/10000) for 1 h30, and washed three times with PBS.
Images were acquired at 10× magnification with an Operetta High Content Imaging System. Image processing and analysis were performed with dedicated algorithms developed on the Acapella High Content Imaging Software (Perkin Elmer) by CYTOO. Eleven fields per well were acquired.
First, segmentation of myotubes and nuclei were done using respectively the Troponin T staining intensity and the Hoechst staining. One to two myotubes per micropattern were usually identified (a myotube is a troponin T staining area that includes at least 2 nuclei). The threshold of segmentation was set-up in order to avoid detecting the background noise and eliminate aberrant small myotube structures. At the end of this first step, specific readouts were calculated in the whole well, like the nuclei count and the fusion index (percentage of nuclei included in troponin T staining) Usually around 50 to 60 myotubes were detected per well in a control condition.
Then, an image clean-up step was performed on the Troponin T images in order to remove myotubes that touch the border of the image. The final valid myotubes were used to extract myotube morphology parameters including the myotube width and area, and the number of nuclei per myotube.
Atrophy Rescue assays were performed in triplicate in the presence of atrophy inducers, i.e. TNF-α, IL-1β, Myostatin, TGF-β and dexamethasone.
Atrophy rescue assays was performed for RepSox. Myotubes from the healthy donor 3 were atrophied using different inducers: TNF-α, IL-1β, Myostatin, TGF-β and dexamethasone.

[2] = tested on: ACh-stimulated myotubes; assay: Calcium flux assay after ACh stimulation; type: cell-based, human
Protocol: Cells were then incubated for 1 h with 2 μM Fluo-4 AM (F14201-Invitrogen) in an incubator (37° C., 5% CO2). After washing to remove unloaded dye, myotube responses to 20 μM ACh (A6625-Sigma-Aldrich), were videoimaged. Stream acquisitions were set at 1 sec intervals and one field of view was acquired per well. Images were processed and analyzed automatically using a dedicated software developed in-house integrating the open-source ImageJ framework. The image analysis tool segments the myotubes in images acquired in the same well. The Fluo-4 total fluorescence intensity was measured inside each myotube and corrected for background. The total intensity was normalized to the myotube area to obtain the mean fluorescence intensity readout.

SMILES: Cc1cccc(-c2n[nH]cc2-c2ccc3ncccc3n2)n1 [RepSox]
- atrophy rescue, IL-1 ([1]; atrophy inducer IL-1β 25 ng/mL): ++
- atrophy rescue, TGF-β ([1]; atrophy inducer TGF-β 0.5 ng/mL): +++
- atrophy rescue, TNF-alpha ([1]; atrophy inducer TNF-α 2 ng/mL): ++
- atrophy rescue, dexamethasone ([1]; atrophy inducer dexamethasone 100 μM): +++
- atrophy rescue, Myostatin ([1]; atrophy inducer myostatin 150 ng/mL): +++
- increase in [Ca2+]i peak amplitude compared to control myotubes ([2]; 20 μM ACh stimulation, myotubes differentiated 8 days, 7 days with compound): 1.56 fold
- number of retracting myotubes after ACh stimulation ([2]; calcium flux time-lapse videos): marked increase
